Our source for the Fodder utilization factor and LD50 values is patent publication US4091206A, “Quinoxaline-1,4-dioxide derivatives” (Egyt Gyogyszervegyeszeti Gyar, priority 1974, dated 1978).

In one data set the test system is pigs. As to the kind of experiment: weight gain increasing effect on pigs (fodder admixed with compound), fodder utilization factor. The format is in vivo. The conditions noted are these: fodder admixed with 50 mg./kg. of compound, index from feeding coefficient and percentage daily weight gain, control 50. As for the experimental part: When utilized as fodder additives, the new compounds according to the invention increase the weight gain and fodder utilization of pigs. The weight gain increasing effect of the compounds was tested on pigs as follows:
The animals were fed under the same conditions with fodders of the same amount and composition. In the test groups the animals received a fodder admixed with 50 mg./kg. of the compound to be tested, whereas no additive was admixed with the fodder in the control group.
The weight gain was measured daily, and the feeding coefficient (amount of consumed fodder resulting in a weight gain of 1 kg.) was calculated. The percentage daily weight gain was calculated by the formula [formula]
Since the rate of weight gain increasing effect depends on both the feeding coefficient and the percentage daily weight gain, and because of the actual fodder consumption and the time required to reach the slaughter weight are the important factors of economical animal husbandry, an index characteristic of the rate of weight gain increase was calculated from the above data by the equation [formula] The higher is the fodder utilization factor the more economic is the pig-breeding.
(§1) The fodder utilization factors determined for the compounds according to the invention, furthermore the oral toxicity data of the novel compounds measured on mice are listed in Table 1. For the sake of comparison the respective data of some known compounds structurally related to those of formula I are also given.

Another data set in a line: oral toxicity on mice. As to conditions: mouse, in vivo.
Text: as §1

As a reminder, the LD50 is the dose expected to kill half of the subjects tested. For `CCCCCCC(=O)NN=Cc1c[n+]([O-])c2ccccc2[n+]1[O-]` [hexyl, 2-(Hexylcarbonyl-hydrazono-formyl)-quinoxaline-1,4-dioxide], the Fodder utilization factor in the data set on pigs was found to be 53. This molecule also gave a 50% lethal dose (LD50) in “oral toxicity on mice” (po) of 4000 mg/kg.

Take `O=C(Cc1cccc2ccccc12)NN=Cc1c[n+]([O-])c2ccccc2[n+]1[O-]` [1-napthylmethyl, 2-(1'-Naphthyl-acetyl)-hydrazono-formyl-quinoxaline-1,4-dioxide]: the Fodder utilization factor in the data set with pigs was 93.5. Further, the 50% lethal dose (LD50) in “oral toxicity on mice” (po) was found to be 13000 mg/kg.

`O=C(NN=Cc1c[n+]([O-])c2ccccc2[n+]1[O-])c1ccncc1` [Example 4-pyridyl, 2-(Isonicotinoyl)-hydrazono-formyl-quinoxaline-1,4-dioxide]: in the data set on pigs, the Fodder utilization factor is given as 91. Moreover, the median lethal dose (LD50) in the data set “oral toxicity on mice” (oral, mice) was 12000 mg/kg.

`COC(=O)NN=Cc1c[n+]([O-])c2ccccc2[n+]1[O-]` [methoxy, 2-(Methoxycarbonyl-hydrazono-formyl)-quinoxaline-1,4-dioxide]: the Fodder utilization factor in the data set on pigs is given as 66. Moreover, the LD50 in “oral toxicity on mice” (oral, mice) is 4000 mg/kg.

On to `O=C(NN=Cc1c[n+]([O-])c2ccccc2[n+]1[O-])c1ccc([N+](=O)[O-])o1` [Example 5-nitrofuryl, 2-(5'-Nitro-2'-furanoyl)-hydrazono-formyl-quinoxaline-1,4-dioxide], for which the Fodder utilization factor in the data set with pigs stood at 91. The same molecule came in with an LD50 in “oral toxicity on mice” (po) of 14000 mg/kg.

As for `O=C(NN=Cc1c[n+]([O-])c2ccccc2[n+]1[O-])c1ccccc1` [phenyl, 2-(Benzoyl-hydrazono-formyl)-quinoxaline-1,4-dioxide], in the data set on pigs, the Fodder utilization factor came out at 66. The LD50 in “oral toxicity on mice” (oral, mice) is 4000 mg/kg.
